# Test system: 695427-040-R-J1-PDC complex spheroids, viability percent T/C
# Assay: Anticancer human tumor 695427-040-R-J1-PDC patient-derived colon adenocarcinoma cell line growth inhibition [GQUAD]
# Settings: for IC50: curve of first compound; for viability, T/C: stronger effect = lower value
# Outline: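 Multi-cell-type spheroids of tumor cells with HUVEC and mesenchymal stem cells, treated with drug combinations. Concentrations descend in half-log steps from near clinical Cmax, or from 10 microM where Cmax is unknown; viability read-out.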
# [1] = second compound 0.0316 µM, first compound 0.0316 µM
# [2] = second compound 0.0316 µM, first compound 0.1 µM
# [3] = second compound 0.0316 µM, first compound 0.316 µM
# [4] = second compound 0.0316 µM, first compound 1 µM
# [5] = second compound 0.0316 µM, first compound 3.16 µM
# [6] = second compound 0.0316 µM, first compound 10 µM
# [7] = second compound 0.1 µM, first compound 0.0316 µM
# [8] = second compound 0.1 µM, first compound 0.1 µM
# [9] = second compound 0.1 µM, first compound 0.316 µM
# [10] = second compound 0.1 µM, first compound 1 µM
# [11] = second compound 0.1 µM, first compound 3.16 µM
# [12] = second compound 0.1 µM, first compound 10 µM
# [13] = second compound 0.316 µM, first compound 0.0316 µM
# [14] = second compound 0.316 µM, first compound 0.1 µM
# [15] = second compound 0.316 µM, first compound 0.316 µM
# [16] = second compound 0.316 µM, first compound 1 µM
# [17] = second compound 0.316 µM, first compound 3.16 µM
# [18] = second compound 0.316 µM, first compound 10 µM
# [19] = second compound 1 µM, first compound 0.0316 µM
# [20] = second compound 1 µM, first compound 0.1 µM
# [21] = second compound 1 µM, first compound 0.316 µM
# [22] = second compound 1 µM, first compound 1 µM
# [23] = second compound 1 µM, first compound 3.16 µM
# [24] = second compound 1 µM, first compound 10 µM
# [25] = second compound 3.16 µM, first compound 0.0316 µM
# [26] = second compound 3.16 µM, first compound 0.1 µM
# [27] = second compound 3.16 µM, first compound 0.316 µM
# [28] = second compound 3.16 µM, first compound 1 µM
# [29] = second compound 3.16 µM, first compound 3.16 µM
# [30] = second compound 3.16 µM, first compound 10 µM
# [31] = second compound 10 µM, first compound 0.0316 µM
# [32] = second compound 10 µM, first compound 0.1 µM
# [33] = second compound 10 µM, first compound 0.316 µM
# [34] = second compound 10 µM, first compound 1 µM
# [35] = second compound 10 µM, first compound 3.16 µM
# [36] = second compound 10 µM, first compound 10 µM
# 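Further: spheroids exposed to compounds for seven days before readout.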
compound,measurement,setting,value
COc1cc(C2c3cc4c(cc3C(OC3OC5COC(C)OC5C(O)C3O)C3COC(=O)C23)OCO4)cc(OC)c1O (stereo not drawn) + Cc1cnc(CNC(=O)c2c(=O)c3ccc(N4CCCN(C)CC4)nc3n3c2sc2ccccc23)cn1,IC50,second compound 0.0316 µM,> 10 µM
same,IC50,second compound 0.1 µM,> 10 µM
same,IC50,second compound 0.316 µM,> 10 µM
same,IC50,second compound 1 µM,> 10 µM
same,IC50,second compound 3.16 µM,< 0.0316 µM
same,IC50,second compound 10 µM,< 0.0316 µM
same,"viability, T/C",[1],87.3%
same,"viability, T/C",[2],94.9%
same,"viability, T/C",[3],92.7%
same,"viability, T/C",[4],54.4%
same,"viability, T/C",[5],64.1%
same,"viability, T/C",[6],60.3%
same,"viability, T/C",[7],84.8%
same,"viability, T/C",[8],79.2%
same,"viability, T/C",[9],70.3%
same,"viability, T/C",[10],62.9%
same,"viability, T/C",[11],75.5%
same,"viability, T/C",[12],65.2%
same,"viability, T/C",[13],71.3%
same,"viability, T/C",[14],79.2%
same,"viability, T/C",[15],70.5%
same,"viability, T/C",[16],63%
same,"viability, T/C",[17],73%
same,"viability, T/C",[18],69.7%
same,"viability, T/C",[19],47.5%
same,"viability, T/C",[20],74.7%
same,"viability, T/C",[21],71.3%
same,"viability, T/C",[22],59.8%
same,"viability, T/C",[23],70%
same,"viability, T/C",[24],55.7%
same,"viability, T/C",[25],33.4%
same,"viability, T/C",[26],50.7%
same,"viability, T/C",[27],46.3%
same,"viability, T/C",[28],50%
same,"viability, T/C",[29],50.9%
same,"viability, T/C",[30],45.7%
same,"viability, T/C",[31],38.8%
same,"viability, T/C",[32],34.7%
same,"viability, T/C",[33],41.8%
same,"viability, T/C",[34],45.4%
same,"viability, T/C",[35],56%
same,"viability, T/C",[36],36.7%
O=C(c1cc(Cc2n[nH]c(=O)c3ccccc23)ccc1F)N1CCN(C(=O)C2CC2)CC1 + Cc1[nH]c2ccc(F)cc2c1-c1nc2c3cccnc3c3ncccc3c2[nH]1,IC50,second compound 0.0316 µM,> 10 µM
same,IC50,second compound 0.1 µM,> 10 µM
same,IC50,second compound 0.316 µM,> 10 µM
same,IC50,second compound 1 µM,> 10 µM
same,IC50,second compound 3.16 µM,< 0.0316 µM
same,IC50,second compound 10 µM,> 10 µM
same,"viability, T/C",[1],97.7%
same,"viability, T/C",[2],105%
same,"viability, T/C",[3],101%
same,"viability, T/C",[4],82.3%
same,"viability, T/C",[5],94.6%
same,"viability, T/C",[6],95.2%
same,"viability, T/C",[7],114%
same,"viability, T/C",[8],93.4%
same,"viability, T/C",[9],97.7%
same,"viability, T/C",[10],78.3%
same,"viability, T/C",[11],93.2%
same,"viability, T/C",[12],84.9%
same,"viability, T/C",[13],105%
same,"viability, T/C",[14],89.1%
same,"viability, T/C",[15],91.5%
same,"viability, T/C",[16],91.1%
same,"viability, T/C",[17],96%
same,"viability, T/C",[18],102%
same,"viability, T/C",[19],84.3%
same,"viability, T/C",[20],87.4%
same,"viability, T/C",[21],73.1%
same,"viability, T/C",[22],78.5%
same,"viability, T/C",[23],99.5%
same,"viability, T/C",[24],79.2%
same,"viability, T/C",[25],47.6%
same,"viability, T/C",[26],87.2%
same,"viability, T/C",[27],74.8%
same,"viability, T/C",[28],69.1%
same,"viability, T/C",[29],91%
same,"viability, T/C",[30],87.4%
same,"viability, T/C",[31],62.6%
same,"viability, T/C",[32],69.1%
same,"viability, T/C",[33],92.1%
same,"viability, T/C",[34],82.5%
same,"viability, T/C",[35],75.9%
same,"viability, T/C",[36],89.8%
CC1COCCN1c1cc(C2(S(C)(=N)=O)CC2)nc(-c2ccnc3[nH]ccc23)n1 (stereo not drawn) + CN(C)c1ccc(Nc2c3ccc(NC(=O)CCN4CCCC4)cc3nc3cc(NC(=O)CCN4CCCC4)ccc23)cc1,IC50,second compound 0.0316 µM,> 10 µM
same,IC50,second compound 0.1 µM,> 10 µM
same,IC50,second compound 0.316 µM,> 10 µM
same,IC50,second compound 1 µM,> 10 µM
same,IC50,second compound 3.16 µM,> 10 µM
same,IC50,second compound 10 µM,> 10 µM
same,"viability, T/C",[1],104%
same,"viability, T/C",[2],96.5%
same,"viability, T/C",[3],106%
same,"viability, T/C",[4],97%
same,"viability, T/C",[5],95.5%
same,"viability, T/C",[6],69.4%
same,"viability, T/C",[7],109%
same,"viability, T/C",[8],93.8%
same,"viability, T/C",[9],110%
same,"viability, T/C",[10],86.1%
same,"viability, T/C",[11],87%
same,"viability, T/C",[12],74%
same,"viability, T/C",[13],103%
same,"viability, T/C",[14],91.4%
same,"viability, T/C",[15],94.3%
same,"viability, T/C",[16],83.7%
same,"viability, T/C",[17],87.5%
same,"viability, T/C",[18],69.9%
same,"viability, T/C",[19],93.3%
same,"viability, T/C",[20],96.4%
same,"viability, T/C",[21],100%
same,"viability, T/C",[22],93.1%
same,"viability, T/C",[23],91.5%
same,"viability, T/C",[24],68.5%
same,"viability, T/C",[25],95.8%
same,"viability, T/C",[26],101%
same,"viability, T/C",[27],103%
same,"viability, T/C",[28],90.8%
same,"viability, T/C",[29],93.4%
same,"viability, T/C",[30],69.6%
same,"viability, T/C",[31],86.7%
same,"viability, T/C",[32],91.8%
same,"viability, T/C",[33],91.9%
same,"viability, T/C",[34],88.1%
same,"viability, T/C",[35],86%
same,"viability, T/C",[36],69.8%
Nc1ccn(C2OC(CO)C(O)C2(F)F)c(=O)n1 (stereo not drawn) + Cc1cnc(CNC(=O)c2c(=O)c3ccc(N4CCCN(C)CC4)nc3n3c2sc2ccccc23)cn1,IC50,second compound 0.0316 µM,> 10 µM
same,IC50,second compound 0.1 µM,> 10 µM
same,IC50,second compound 0.316 µM,> 10 µM
same,IC50,second compound 1 µM,> 10 µM
same,IC50,second compound 3.16 µM,< 0.0316 µM
same,IC50,second compound 10 µM,< 0.0316 µM
same,"viability, T/C",[1],91.9%
same,"viability, T/C",[2],81.2%
same,"viability, T/C",[3],73.6%
same,"viability, T/C",[4],49.4%
same,"viability, T/C",[5],55.1%
same,"viability, T/C",[6],53.9%
same,"viability, T/C",[7],93.8%
same,"viability, T/C",[8],72.5%
same,"viability, T/C",[9],65.9%
same,"viability, T/C",[10],52%
same,"viability, T/C",[11],56.4%
same,"viability, T/C",[12],61.3%
same,"viability, T/C",[13],70%
same,"viability, T/C",[14],66%
same,"viability, T/C",[15],61.7%
same,"viability, T/C",[16],64.8%
same,"viability, T/C",[17],64.2%
same,"viability, T/C",[18],53.5%
same,"viability, T/C",[19],60.6%
same,"viability, T/C",[20],55.2%
same,"viability, T/C",[21],54.9%
same,"viability, T/C",[22],52.8%
same,"viability, T/C",[23],56.4%
same,"viability, T/C",[24],54.6%
same,"viability, T/C",[25],42.7%
same,"viability, T/C",[26],50.9%
same,"viability, T/C",[27],54.3%
same,"viability, T/C",[28],47.3%
same,"viability, T/C",[29],46.4%
same,"viability, T/C",[30],36%
same,"viability, T/C",[31],35.1%
same,"viability, T/C",[32],41.7%
same,"viability, T/C",[33],40.1%
same,"viability, T/C",[34],29%
same,"viability, T/C",[35],36.7%
same,"viability, T/C",[36],29.8%
